Results on ten compounds are retold here after paper PMC6270991, “Design and Synthesis of Thiazolo[5,4-f]quinazolines as DYRK1A Inhibitors, Part I” (Molecules, 2014).

One may read the IC50 as the midpoint of a concentration-inhibition curve.

One experiment deals with CK1δ/ε. As to the kind of experiment: CK1δ/ε in vitro kinase assay (33P-ATP, CK1-specific peptide substrate). The format is biochemical, Porcine. The settings on record: 15 μM ATP, 30 min at 30 °C, triplicate; <50% inhibition at 10 µM reported as >10. The protocol:
(§1) Controls were performed with appropriate dilutions of dimethylsulfoxide (DMSO). IC50 values were calculated from dose-response curves established by Sigma-Plots. The GSK-3, CK1, DYRK1A and CLK1 peptide substrates were obtained from Proteogenix (Oberhausbergen, France).
(§2) CDK5/p25. (Human, recombinant) was prepared as previously described. […] ATP (3000 Ci/mmol; 10 mCi/mL) in a final volume of 30 μL. After 30 min incubation at 30 °C, 25 μL aliquots of supernatant were spotted onto sheets of Whatman P81 phosphocellulose paper, and 20 s later, the filters were washed eight times (for at least 5 min each time) in a solution of 10 mL phosphoric acid/L of water. The wet filters were counted in the presence of 1 mL ACS (Amersham) scintillation fluid.
CK1δ/ε. (Porcine brain, native) was assayed as described for CDK5/p25, but using the CK1-specific peptide substrate […]pSAYSITA [23].

The target in a further experiment is DYRK1A (Rattus norvegicus, UniProt Q63470). As to the kind of experiment: DYRK1A in vitro kinase assay (33P-ATP, Woodtide substrate). Type of experiment: biochemical. How it is done:
(§3) Buffer A: MgCl2 (10 mM), 1 mM ethylene glycol-bis(2-aminoethylether)-N,N,N',N'-tetraacetic acid (EGTA), 1 mM dithiothreitol (DTT), 25 mM Tris-HCl pH 7.5, 50 μg heparin/mL.
as §1, §2

In the next experiment the target is GSK-3α/β. As to the kind of experiment: GSK-3α/β in vitro kinase assay (33P-ATP, GS-1 peptide). Type of experiment: biochemical, Porcine. The settings on record: 15 μM ATP, 30 min at 30 °C, triplicate; <50% inhibition at 10 µM reported as >10; read-out: GSK3 IC50. How it is done:
as §3, §1, §2
GSK-3α/β. (Porcine brain, native) was assayed as described for CDK5/p25, but in buffer A and using a GSK-3 specific substrate (GS-1: […]pSEDEEE) (pS stands for phosphorylated serine).

In a further experiment the target is T1, CDK5/p25 (Homo sapiens, UniProt Q00535).
T1 construct: made in house
As to the kind of experiment: CDK5/p25 in vitro kinase assay (33P-ATP, histone H1). The format is biochemical. Conditions: read-out: CDK5 IC50. The protocol:
as §3, §1, §2

[1] abbreviates: 15 μM ATP, 30 min at 30 °C, triplicate, <50% inhibition at 10 µM reported as >10.

Read-outs that look alike come from different tables or passages of the source.

T1 sequence (Q00535 whole entry): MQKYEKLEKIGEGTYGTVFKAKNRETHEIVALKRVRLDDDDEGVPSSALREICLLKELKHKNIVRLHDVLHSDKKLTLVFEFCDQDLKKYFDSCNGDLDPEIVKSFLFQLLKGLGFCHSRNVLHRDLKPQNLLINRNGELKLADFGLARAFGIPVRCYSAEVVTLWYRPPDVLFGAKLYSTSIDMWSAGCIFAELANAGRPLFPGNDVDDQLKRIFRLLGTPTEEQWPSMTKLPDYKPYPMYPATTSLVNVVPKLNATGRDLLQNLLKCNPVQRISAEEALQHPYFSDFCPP
T1 sequence (Q15078 99-307 partner limits assumed): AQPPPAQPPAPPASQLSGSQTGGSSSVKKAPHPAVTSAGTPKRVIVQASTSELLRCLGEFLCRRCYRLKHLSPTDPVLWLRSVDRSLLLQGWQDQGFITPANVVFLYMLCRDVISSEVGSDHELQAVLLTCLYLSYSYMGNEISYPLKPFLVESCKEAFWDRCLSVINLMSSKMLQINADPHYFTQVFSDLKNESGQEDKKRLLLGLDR

Turning to `CCN(CC)CCNC(=N)c1nc2ccc3ncnc(Nc4ccc(Br)cc4F)c3c2s1` [Compound 9e, 9-(4-Bromo-2-fluorophenylamino)-N-(2-(diethylamino)ethyl)thiazolo[5,4-f]quinazoline-2-carboxi-midamide], the half-maximal inhibitory concentration (IC50) at CK1δ/ε is over 10 µM; at DYRK1A (setting [1]), over 10 µM; on GSK-3α/β, 2.1 µM; on CDK5/p25 (setting [1]), over 10 µM.

As to `N=C(NCc1ccccc1)c1nc2ccc3ncnc(Nc4ccc(Br)cc4F)c3c2s1` [Compound 9f, N-Benzyl-9-(4-bromo-2-fluorophenylamino)thiazolo[5,4-f]quinazoline-2-carboximidamide], the IC50 is over 10 µM on CK1δ/ε, over 10 µM at DYRK1A, 1.8 µM on GSK-3α/β and over 10 µM on CDK5/p25.

Regarding `CN(C)C(=N)c1nc2ccc3ncnc(Nc4ccc(Br)cc4F)c3c2s1` [Compound 9g], the half-inhibitory concentration (IC50) was over 10 µM at CK1δ/ε, 0.27 µM at DYRK1A (setting [1]), 0.6 µM at GSK-3α/β and over 10 µM at CDK5/p25 (setting [1]).

As to `NC(=O)c1nc2ccc3ncnc(Nc4ccc(Br)cc4F)c3c2s1` [Compound 9h, 9-(4-Bromo-2-fluorophenylamino)thiazolo[5,4-f]quinazoline-2-carboxamide], the IC50 is over 10 µM against CK1δ/ε, 0.67 µM at DYRK1A, 0.13 µM on GSK-3α/β and over 10 µM at CDK5/p25.

On to `N=C(NCCN1CCOCC1)c1nc2ccc3ncnc(Nc4ccc(F)c(Cl)c4)c3c2s1` [Compound 10a, 9-(3-Chloro-4-fluorophenylamino)-N-(2-morpholinoethyl)thiazolo[5,4-f]quinazoline-2-carboximid-amide], for which the IC50 was over 10 µM against CK1δ/ε, over 10 µM on DYRK1A (setting [1]), 3.5 µM on GSK-3α/β and over 10 µM at CDK5/p25 (setting [1]).

Consider `N=C(NCCN1CCCCC1)c1nc2ccc3ncnc(Nc4ccc(F)c(Cl)c4)c3c2s1` [Compound 10b, 9-(3-Chloro-4-fluorophenylamino)-N-(2-(piperidin-1-yl)ethyl)thiazolo[5,4-f]quinazoline-2-carboxi-midamide], for which the IC50 on CK1δ/ε was over 10 µM; against DYRK1A (setting [1]), over 10 µM; on GSK-3α/β, 1.4 µM; at CDK5/p25 (setting [1]) it was over 10 µM.

Regarding `N=C(NCCN1CCCC1)c1nc2ccc3ncnc(Nc4ccc(F)c(Cl)c4)c3c2s1` [Compound 10c, 9-(3-Chloro-4-fluorophenylamino)-N-(2-(pyrrolidin-1-yl)ethyl)thiazolo[5,4-f]quinazoline-2-carboxi-midamide], the IC50 against CK1δ/ε is over 10 µM; against DYRK1A (setting [1]), over 10 µM; at GSK-3α/β, 2.5 µM; on CDK5/p25 (setting [1]), over 10 µM.

Consider `CN(C)CCNC(=N)c1nc2ccc3ncnc(Nc4ccc(F)c(Cl)c4)c3c2s1` [Compound 10d, 9-(3-Chloro-4-fluorophenylamino)-N-(2-(dimethylamino)ethyl)thiazolo[5,4-f]quinazoline-2-carboxi-midamide], for which the half-maximal inhibitory concentration (IC50) on CK1δ/ε was over 10 µM; against DYRK1A (setting [1]), over 10 µM; on GSK-3α/β, 3 µM; at CDK5/p25 (setting [1]), over 10 µM.

With `CCN(CC)CCNC(=N)c1nc2ccc3ncnc(Nc4ccc(F)c(Cl)c4)c3c2s1` [Compound 10e, 9-(3-Chloro-4-fluorophenylamino)-N-(2-(diethylamino)ethyl)thiazolo[5,4-f]quinazoline-2-carboxi-midamide], the IC50 on CK1δ/ε is over 10 µM; on DYRK1A (setting [1]) it was over 10 µM; at GSK-3α/β it was 7 µM; at CDK5/p25 (setting [1]) it was over 10 µM.

As to `N=C(NCc1ccccc1)c1nc2ccc3ncnc(Nc4ccc(F)c(Cl)c4)c3c2s1` [Compound 10f, N-Benzyl-9-(3-chloro-4-fluorophenylamino)thiazolo[5,4-f]quinazoline-2-carboximidamide], the IC50 against CK1δ/ε, against DYRK1A, on GSK-3α/β and at CDK5/p25 was over 10 µM in each case.
